Here are results for one compound from patent US20080085315A1, “Amorphous ezetimibe and the production thereof” (priority 2006, published 2008).

For series [1] the following is noted: cited from earlier work.
A short description of series [2]: Pharmacokinetics in fasted male Sprague Dawley rats, single dose. To be noted: rat, po, analyte EZE in plasma, single dose 100 mg/kg crystalline EZE or equivalent amount of amorphous EZE. The format is in vivo. On the procedure: The pharmacokinetics of crystalline EZE and the amorphous 1 EZE: 3 PVP+2% SLS spray dried powder were studied in male Sprague Dawley rats in the fasted state. Six rats were single-dosed with either 100 mg/kg crystalline EZE or an equivalent amount of the amorphous EZE of Example 2.

The Cmax is the highest concentration seen after dosing. One may read the Tmax as the time from dosing to the highest level.

As to `O=C1[C@H](CC[C@H](O)c2ccc(F)cc2)[C@@H](c2ccc(O)cc2)N1c1ccc(F)cc1` [crystalline, 1-(4-fluorophenyl)-3(R)-[3-(4-fluorophenyl)-3(S)-hydroxypropyl]-4(S)-(4-hydroxyphenyl)-2-azetidinone], the solubility in water result in series [1] is listed as “insoluble in water”. Further, in series [2], the highest concentration (Cmax) was found to be 5.1 ng/mL and the Tmax worked out at 8 h. In addition, the AUC(0-t) in series [2] (read-out: AUC0-24 h) is 64.2 ng·h/mL.
